Experimental data from PubChem BioAssay AID248 (DTP/NCI, 2004).
Inconclusive results and toxic doses are left out. No stated cut-off is given here; in the data, active means T/C of 150% or more; inactive means T/C below 125%.

Tested on: L1210 leukemia ip in BDF1 mice, survival T/C
Test: NCI In Vivo Anticancer Drug Screen. Data for tumor model L1210 Leukemia (intraperitoneal) in B6D2F1 (BDF1) mice
Conditions: endpoint: mean survival time, higher = longer survival
How it was run: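 Read-out is survival time, reported as the treated-group measurement over the vehicle-control measurement.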

[1] = dose: 100.0 mg/kg/injection, schedule: Q01DX001 (ip), vehicle: saline
[2] = dose: 200.0 mg/kg/injection, schedule: Q01DX001 (ip), vehicle: saline
[3] = dose: 400.0 mg/kg/injection, schedule: Q01DX001 (ip), vehicle: saline
[4] = dose: 100.0 mg/kg/injection, schedule: Q04DX003 (ip), vehicle: saline with Tween-80
[5] = dose: 200.0 mg/kg/injection, schedule: Q04DX003 (ip), vehicle: saline with Tween-80
[6] = dose: 100.0 mg/kg/injection, schedule: Q01DX001 (ip), vehicle: carboxymethylcellulose (CMC)
[7] = dose: 200.0 mg/kg/injection, schedule: Q01DX001 (ip), vehicle: carboxymethylcellulose (CMC)
[8] = dose: 400.0 mg/kg/injection, schedule: Q01DX001 (ip), vehicle: carboxymethylcellulose (CMC)
[9] = dose: 100.0 mg/kg/injection, schedule: Q01DX009 (ip), vehicle: saline with Tween-80
[10] = dose: 25.0 mg/kg/injection, schedule: Q04DX002 (ip), vehicle: Klucel (hydroxypropylcellulose) (HPC)
[11] = dose: 50.0 mg/kg/injection, schedule: Q04DX002 (ip), vehicle: Klucel (hydroxypropylcellulose) (HPC)

Measured: T/C

CNc1c(Cl)n(C)c(=O)n(C)c1=O
inactive: dose: 50.0 mg/kg/injection, schedule: Q01DX001 (ip), vehicle: saline 101 % of control | [1] 101 % of control | [2] 104 % of control | [3] 101 % of control

O=c1c2ccccc2sc2c1ccc1c2ccc2c(=O)c3ccccc3sc21
inactive: [4] 96 % of control | [5] 87 % of control

Cc1cc(C)c2[nH]c(=O)c(Br)c(C)c2c1
inactive: dose: 100.0 mg/kg/injection, schedule: Q01DX001 (ip), vehicle: other 93 % of control | dose: 200.0 mg/kg/injection, schedule: Q01DX001 (ip), vehicle: other 98 % of control | dose: 400.0 mg/kg/injection, schedule: Q01DX001 (ip), vehicle: other 106 % of control

Cc1ccc(S(=O)(=O)Nc2ccccc2N=Cc2ccc(N(CCCl)CCCl)cc2)cc1
inactive: [6] 115 % of control | [7] 106 % of control | [8] 90 % of control

O=C(Nc1cccc2ccccc12)c1ccc(C(=O)Nc2cccc3ccccc23)c(C(=O)O)c1
inactive: dose: 50.0 mg/kg/injection, schedule: Q04DX002 (ip), vehicle: gum acacia 94 % of control | dose: 100.0 mg/kg/injection, schedule: Q04DX002 (ip), vehicle: gum acacia 90 % of control | dose: 200.0 mg/kg/injection, schedule: Q04DX002 (ip), vehicle: gum acacia 94 % of control

Nc1cc(=O)n(Cc2ccccc2)c(=O)n1Cc1ccccc1
inactive: dose: 50.0 mg/kg/injection, schedule: Q01DX001 (ip), vehicle: carboxymethylcellulose (CMC) 104 % of control | [6] 101 % of control | [7] 111 % of control | [8] 98 % of control

CCc1c(N)nc(N)nc1Nc1ccc(C)cc1
inactive: dose: 6.0 mg/kg/injection, schedule: Q01DX Z (ip), vehicle: methylcellulose (MC) 95 % of control | dose: 12.0 mg/kg/injection, schedule: Q01DX Z (ip), vehicle: methylcellulose (MC) 97 % of control

O=[N+]([O-])c1ccc(N=Nc2c(Cl)cc(O)cc2Cl)cc1
inactive: dose: 25.0 mg/kg/injection, schedule: Q01DX009 (ip), vehicle: saline with Tween-80 96 % of control | dose: 50.0 mg/kg/injection, schedule: Q01DX009 (ip), vehicle: saline with Tween-80 89 % of control | [9] 89 % of control

CCOC(=O)NC(=S)Nc1ncn[nH]1
inactive: dose: 100.0 mg/kg/injection, schedule: Q04DX003 (ip), vehicle: saline 96 % of control | dose: 200.0 mg/kg/injection, schedule: Q04DX003 (ip), vehicle: saline 97 % of control | dose: 400.0 mg/kg/injection, schedule: Q04DX003 (ip), vehicle: saline 103 % of control

CC1CNC(=O)C(=O)N1 (configuration not stated)
inactive: dose: 100.0 mg/kg/injection, schedule: Q04DX002 (ip), vehicle: saline 98 % of control | dose: 200.0 mg/kg/injection, schedule: Q04DX002 (ip), vehicle: saline 102 % of control | dose: 400.0 mg/kg/injection, schedule: Q04DX002 (ip), vehicle: saline 94 % of control

NC(=O)N1CCCC1
inactive: [1] 98 % of control | [2] 95 % of control | [3] 95 % of control

NC(=O)C1=CN(Cc2ccc(F)cc2)c2ccccc2C1
inactive: dose: 100.0 mg/kg/injection, schedule: Q04DX003 (ip), vehicle: other 107 % of control | dose: 200.0 mg/kg/injection, schedule: Q04DX003 (ip), vehicle: other 94 % of control | dose: 400.0 mg/kg/injection, schedule: Q04DX003 (ip), vehicle: other 102 % of control

Cc1nonc1-c1nc(SCC(=O)NN)n[nH]1
inactive: [10] 102 % of control | [11] 98 % of control

CCOC(=O)c1cnc(SC)nc1Nc1ccccc1[N+](=O)[O-]
inactive: dose: 25.0 mg/kg/injection, schedule: Q01DX001 (ip), vehicle: Klucel (hydroxypropylcellulose) (HPC) 96 % of control | dose: 50.0 mg/kg/injection, schedule: Q01DX001 (ip), vehicle: Klucel (hydroxypropylcellulose) (HPC) 96 % of control | dose: 100.0 mg/kg/injection, schedule: Q01DX001 (ip), vehicle: Klucel (hydroxypropylcellulose) (HPC) 100 % of control | dose: 100.0 mg/kg/injection, schedule: Q01DX009 (ip), vehicle: Klucel (hydroxypropylcellulose) (HPC) 94 % of control | dose: 200.0 mg/kg/injection, schedule: Q01DX001 (ip), vehicle: Klucel (hydroxypropylcellulose) (HPC) 88 % of control | dose: 200.0 mg/kg/injection, schedule: Q01DX009 (ip), vehicle: Klucel (hydroxypropylcellulose) (HPC) 94 % of control | dose: 400.0 mg/kg/injection, schedule: Q01DX001 (ip), vehicle: Klucel (hydroxypropylcellulose) (HPC) 88 % of control | dose: 400.0 mg/kg/injection, schedule: Q01DX009 (ip), vehicle: Klucel (hydroxypropylcellulose) (HPC) 89 % of control

CC(=O)N1C=Cn2c(cnc2C)C1O (configuration not stated)
inactive: dose: 100.0 mg/kg/injection, schedule: Q01DX009 (ip), vehicle: water 104 % of control | dose: 100.0 mg/kg/injection, schedule: Q04DX003 (ip), vehicle: water 109 % of control | dose: 200.0 mg/kg/injection, schedule: Q01DX009 (ip), vehicle: water 94 % of control | dose: 200.0 mg/kg/injection, schedule: Q04DX003 (ip), vehicle: water 102 % of control | dose: 400.0 mg/kg/injection, schedule: Q04DX003 (ip), vehicle: water 98 % of control

O=C(O)c1cc2ccc3ccccc3c2oc1=O
inactive: [6] 87 % of control | [7] 92 % of control | [8] 92 % of control

CCCCn1ccnc1
inactive: dose: 12.5 mg/kg/injection, schedule: Q04DX003 (ip), vehicle: saline 105 % of control | dose: 25.0 mg/kg/injection, schedule: Q04DX003 (ip), vehicle: saline 103 % of control

CCCCCCCCCN1CCCC(C)C1 (configuration not stated)
inactive: dose: 12.5 mg/kg/injection, schedule: Q04DX002 (ip), vehicle: Klucel (hydroxypropylcellulose) (HPC) 93 % of control | [10] 97 % of control | [11] 101 % of control

On1nnc2ccc(Cl)cc21
inactive: [4] 95 % of control | [5] 95 % of control | dose: 400.0 mg/kg/injection, schedule: Q04DX003 (ip), vehicle: saline with Tween-80 102 % of control

CCC/C=[CH]/[Hg][Cl]
inactive: dose: 6.25 mg/kg/injection, schedule: Q01DX009 (ip), vehicle: other 93 % of control | dose: 6.25 mg/kg/injection, schedule: Q04DX003 (ip), vehicle: saline sonified 95 % of control | dose: 12.5 mg/kg/injection, schedule: Q01DX009 (ip), vehicle: other 94 % of control | dose: 12.5 mg/kg/injection, schedule: Q04DX003 (ip), vehicle: saline sonified 95 % of control | dose: 25.0 mg/kg/injection, schedule: Q01DX009 (ip), vehicle: other 97 % of control | dose: 25.0 mg/kg/injection, schedule: Q04DX003 (ip), vehicle: saline sonified 106 % of control

COc1ccc2c(c1)NCc1c(Br)cc(Br)cc1C2=O
inactive: dose: 100.0 mg/kg/injection, schedule: Q01DX009 (ip), vehicle: saline 94 % of control | dose: 200.0 mg/kg/injection, schedule: Q01DX009 (ip), vehicle: saline 93 % of control | dose: 400.0 mg/kg/injection, schedule: Q01DX009 (ip), vehicle: saline 91 % of control

O=C(O)C1C2CCC1C(O)C2 (configuration not stated)
inactive: dose: 100.0 mg/kg/injection, schedule: Q01DX001 (ip), vehicle: saline with Tween-80 107 % of control | dose: 200.0 mg/kg/injection, schedule: Q01DX001 (ip), vehicle: saline with Tween-80 94 % of control | dose: 400.0 mg/kg/injection, schedule: Q01DX001 (ip), vehicle: saline with Tween-80 97 % of control

O=[N+]([O-])c1cc([N+](=O)[O-])c2nc3ccccn3c2c1
inactive: [9] 96 % of control | dose: 200.0 mg/kg/injection, schedule: Q01DX009 (ip), vehicle: saline with Tween-80 102 % of control | dose: 400.0 mg/kg/injection, schedule: Q01DX009 (ip), vehicle: saline with Tween-80 107 % of control
